Measured values reported in patent US11752162B2, “Compounds and compositions for treating solid tumors by intratumoral administration” (Novartis AG, priority 2017, dated 2023).

Assays:
[1] = Adsorption of compounds to aluminum hydroxide in histidine buffer (pH 6.8); format: physicochemical; settings: histidine buffer pH 6.8, 0.1 mg/mL compound, 37° C. 5 hours
IP-10 = assay: Plasma IP-10 profiles in Wistar rats after s.c. injection; format: in vivo, rat; settings: male Wistar rats
[2] = Binding efficiency of Compound 15 to aluminum-containing particles (Alhydrogel) in Tris buffer; format: physicochemical
human TLR7 = biological target: T1, human TLR7 (Homo sapiens, UniProt Q9NYK1); assay: TLR7 reporter gene assay (NF-kB-driven luciferase) in HEK293 cells
T1 sequence (Q9NYK1 27-1049): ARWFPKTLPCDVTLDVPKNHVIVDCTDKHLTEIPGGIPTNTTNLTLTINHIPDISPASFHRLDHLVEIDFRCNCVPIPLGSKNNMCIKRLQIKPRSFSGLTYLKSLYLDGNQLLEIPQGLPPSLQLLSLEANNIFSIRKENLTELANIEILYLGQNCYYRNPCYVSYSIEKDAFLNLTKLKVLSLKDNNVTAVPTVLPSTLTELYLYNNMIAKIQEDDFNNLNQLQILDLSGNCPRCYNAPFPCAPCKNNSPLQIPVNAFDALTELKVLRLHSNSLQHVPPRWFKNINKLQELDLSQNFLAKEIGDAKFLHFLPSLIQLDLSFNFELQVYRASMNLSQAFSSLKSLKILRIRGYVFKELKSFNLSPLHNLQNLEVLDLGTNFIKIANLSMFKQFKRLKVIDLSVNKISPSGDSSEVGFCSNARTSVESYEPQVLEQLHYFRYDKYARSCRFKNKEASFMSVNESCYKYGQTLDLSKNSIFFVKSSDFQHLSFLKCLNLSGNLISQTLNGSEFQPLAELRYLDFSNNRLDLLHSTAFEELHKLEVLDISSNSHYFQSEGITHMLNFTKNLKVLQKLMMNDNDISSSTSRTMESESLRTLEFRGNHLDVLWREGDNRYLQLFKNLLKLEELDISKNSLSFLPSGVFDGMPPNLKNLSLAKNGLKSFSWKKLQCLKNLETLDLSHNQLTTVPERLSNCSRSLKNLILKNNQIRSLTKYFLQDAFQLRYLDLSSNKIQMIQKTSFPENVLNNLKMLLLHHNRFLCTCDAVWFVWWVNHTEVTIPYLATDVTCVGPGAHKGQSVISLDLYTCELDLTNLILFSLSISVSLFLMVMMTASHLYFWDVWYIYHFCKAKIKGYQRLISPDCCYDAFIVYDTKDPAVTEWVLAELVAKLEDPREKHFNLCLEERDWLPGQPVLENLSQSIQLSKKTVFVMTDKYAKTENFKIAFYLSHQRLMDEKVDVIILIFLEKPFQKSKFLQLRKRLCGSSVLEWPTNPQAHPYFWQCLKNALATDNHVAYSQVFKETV

A20 tumors = assay: Mouse syngeneic lymphoma A20 bilateral tumor model, single agent dose response; format: in vivo; settings: Compound 15 alone i.t., two weekly doses
Experimental: The anti-tumor efficacy of Compound 15 adsorbed to Alhydrogel® was determined using the mouse syngeneic lymphoma A20 bilateral tumor model in female BALB/c mice.
A20 cells were grown in sterile conditions in a 37° C. incubator with 5% CO2 for two weeks. Cells were grown in RPMI 1640 medium with 2 mM L-glutamine adjusted to contain 1.5 g/L sodium bicarbonate, 4.5 g/L glucose, 10 mM HEPES, and 1.0 mM sodium pyruvate and supplemented with 0.05 mM 2-mercaptoethanol, 10% fetal bovine serum. Cells were passaged every 2-3 days. For the day of implant cells were lifted (passage 12) and re-suspended in HBSS at a concentration of 5×10^6 cells/100 μL. Cells were Radil tested for mycoplasma and murine viruses. For each mouse, 5×10^6 cells were implanted by subcutaneous injection into the right and left flank using a 28.5 g needle (100 μl injection volume). Tumor sizes were assessed three times a week once tumors were palpable. Tumor sizes were determined by using caliper measurements, with tumor volumes calculated using the formula: (Length×Width×Width)/2.
The female Balb/c mice bearing the A20 tumors were randomized into 7 groups (n=10 mice per group) 8 days post tumor cell implantation with an average tumor volume range of 111.40±23.57 mm^3. […]
Tumor volumes were measured by digital caliper 3 times a week and body weights of all animals were recorded throughout the study. […]

[3] = Compound 15 0.25 mg/mL, aluminum 0.625 mg/mL, ratio 2.5:1
[4] = Compound 15 0.25 mg/mL, aluminum 5 mg/mL, ratio 20:1
[5] = Compound 15 1 mg/mL, aluminum 2.5 mg/mL, ratio 2.5:1
[6] = Compound 15 2 mg/mL, aluminum 0.1 mg/mL, ratio 0.05:1, 20 mM Tris pH 7.4
[7] = Compound 15 2 mg/mL, aluminum 2 mg/mL, ratio 1:1, 20 mM Tris pH 7.4
[8] = Compound 15 2 mg/mL, aluminum 3 mg/mL, ratio 1.5:1, 20 mM Tris pH 7.4
[9] = Compound 15 3 mg/mL, aluminum 5 mg/mL, ratio 1.7:1
[10] = Compound 15 3 mg/mL, aluminum 7.5 mg/mL, ratio 2.5:1

% Bound [1]: 96.0% | Compound 15 % Bound [2, 3]: 90.7% | Compound 15 % Free [2, 3]: 9.3% | Compound 15 % Bound [2, 4]: 97.6% | Compound 15 % Free [2, 4]: 1.4% | Compound 15 % Bound [2, 5]: 93.5% | Compound 15 % Free [2, 5]: 6.5% | Compound 15 % Bound [2, 6]: 9.6% | Compound 15 % Free [2, 6]: 90.4% | Compound 15 % Free ([2]; Compound 15 2 mg/mL, aluminum 0.5 mg/mL, ratio 0.25:1, 20 mM Tris pH 7.4): 74.3% | Compound 15 % Bound ([2]; Compound 15 2 mg/mL, aluminum 1 mg/mL, ratio 0.5:1, 20 mM Tris pH 7.4): 43.5% | Compound 15 % Bound [2, 7]: 80.8% | Compound 15 % Free [2, 7]: 19.2% | Compound 15 % Bound [2, 8]: 97.6% | Compound 15 % Free [2, 8]: 2.4% | Compound 15 % Bound [2, 9]: 99.6% | Compound 15 % Free [2, 9]: 0.4% | Compound 15 % Bound [2, 10]: 97.1% | Compound 15 % Free [2, 10]: 2.9% | Compound 15 % Bound ([2]; aluminum hydroxide:Compound 15 ratio (w/w) 1.5:1, Tris buffer pH 7): 98.5% | Compound 15 % Bound ([2]; aluminum hydroxide:Compound 15 ratio (w/w) 1.5:1, Tris buffer pH 7.5): 85.9% | Compound 15 % Bound ([2]; aluminum hydroxide:Compound 15 ratio (w/w) 2:1, Tris buffer pH 7): 99.3% | Compound 15 % Bound ([2]; aluminum hydroxide:Compound 15 ratio (w/w) 2:1, Tris buffer pH 8): 99.1% | % Free Compound 15 ([2]; dosing formulation of Example 9, 100 mM Tris pH 7.4): 100% | % Free Compound 15 ([2]; dosing formulation of Example 10, 100 mM Tris pH 7.4): 100% | EC50 (human TLR7): 96 nM
Compound: Cc1cc(OCCOCCC(F)(F)P(=O)(O)O)ccc1CCc1cnc2c(N)nc3cc(CCC(=O)O)ccc3c2c1 [Compound 15, 3-(5-amino-2-(4-(2-(3,3-difluoro-3-phosphonopropoxy)ethoxy)-2-methylphenethyl)benzo[f][1,7]naphthyridin-8-yl)propanoic acid]
peak plasma IP-10 levels compared with 600 μg Compound 15/aluminum hydroxide (IP-10; 600 μg s.c.): higher peak IP-10 levels with a fast rate of decline | time of maximum plasma IP-10 levels post s.c. injection (IP-10; 50 and 600 μg adsorbed, 600 μg free Compound 15): around 3 h | tumor growth, both tumor sites (A20 tumors): no significant difference in both tumor sites
